For data set [1], the target named is Cannabinoid receptor 2 (Homo sapiens, UniProt P34972). The data set is described as follows: Inhibition of beta-arrestin binding to recombinant cannabinoid CB2 receptor.
Data set [2] can be described thus: Selectivity ratio of Ki for recombinant cannabinoid CB1 receptor to Ki for recombinant cannabinoid CB2 receptor.
A short description of data set [3]: AUC in rat at 10 mg/kg. Format: ADME, organism-based. Further details: dose 10 mg/kg. Particulars: plasma.

Chain of Cannabinoid receptor 2 (P34972 whole entry): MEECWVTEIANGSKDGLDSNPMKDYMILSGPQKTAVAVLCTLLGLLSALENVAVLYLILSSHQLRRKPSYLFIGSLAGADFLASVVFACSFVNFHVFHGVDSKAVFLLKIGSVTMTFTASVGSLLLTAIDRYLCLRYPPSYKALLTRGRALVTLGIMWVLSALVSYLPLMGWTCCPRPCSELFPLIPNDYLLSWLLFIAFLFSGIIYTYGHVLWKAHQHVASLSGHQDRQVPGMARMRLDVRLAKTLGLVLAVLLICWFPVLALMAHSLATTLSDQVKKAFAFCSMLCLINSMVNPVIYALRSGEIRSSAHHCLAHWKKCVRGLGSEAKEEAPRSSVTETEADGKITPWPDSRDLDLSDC

For `O=S(=O)(c1cc2ccccc2n1S(=O)(=O)c1ccccn1)N1CCC(CNS(=O)(=O)C(F)(F)F)CC1`, the Ki in data set [1] was 0.9 nM. In data set [2], the Ratio Ki was 9180.

Regarding `CCC1(CNS(=O)(=O)C(F)(F)F)CCN(S(=O)(=O)c2cc3cc(F)ccc3n2S(=O)(=O)c2ccccc2F)CC1`, the Ki in data set [1] was found to be 0.4 nM. For the same compound, in data set [2], the Ratio Ki is 2800. The compound further displayed an AUC in data set [3] of 3.77 µM·h.

As for `O=S(=O)(c1ccccc1F)c1ncccc1S(=O)(=O)N1CCC(CNS(=O)(=O)C(F)(F)F)CC1`, the Ki in data set [1] amounted to 790 nM. Moreover, the Ratio Ki in data set [2] came to 126.

Take `C[C@@H](NS(=O)(=O)C(F)(F)F)c1ccc(S(=O)(=O)c2cc3ccccc3n2S(=O)(=O)c2ccccc2F)cc1`: the Ki in data set [1] turned out to be 7.5 nM. The Ratio Ki in data set [2] is 1340.

As for `O=S(=O)(c1cc2ccccc2n1S(=O)(=O)c1ccccn1)N1CCC2(CC1)C[C@@H]2NS(=O)(=O)C(F)(F)F`, in data set [1], the Ki was determined as 0.4 nM. The Ratio Ki in data set [2] was found to be 3500. The compound further came in with an exposure (AUC) in data set [3] of 4.56 µM·h.

In the case of `CCCC1(CNS(=O)(=O)C(F)(F)F)CCN(S(=O)(=O)c2cc3ccccc3n2S(=O)(=O)c2ccccc2F)CC1`, the Ki in data set [1] worked out at 1.8 nM. Besides, the Ratio Ki in data set [2] was 2520.

Regarding `O=S(=O)(c1ccccc1F)c1occc1S(=O)(=O)N1CCC(CNS(=O)(=O)C(F)(F)F)CC1`, the Ki in data set [1] came out at 1.4 nM. Further, the Ratio Ki in data set [2] was 4520.

Turning to `C[C@H]1C[C@H](CNS(=O)(=O)C(F)(F)F)CCN1S(=O)(=O)c1cc2ccccc2n1S(=O)(=O)c1ccccc1F`, the inhibitory constant (Ki) in data set [1] came out at 16 nM. For the same compound, the Ratio Ki in data set [2] was found to be 334.

On to `C[C@@H]1CN(S(=O)(=O)c2cc3ccccc3n2S(=O)(=O)c2ccccc2F)CC[C@H]1CNS(=O)(=O)C(F)(F)F`, for which, in data set [1], the Ki was found to be 0.5 nM. Further, in data set [2], the Ratio Ki came out at 2260.

For the compound `O=S(=O)(c1cc2ccccc2n1S(=O)(=O)c1ccccc1F)N1CCCC(CCNS(=O)(=O)C(F)(F)F)C1` (configuration not stated), the Ki in data set [1] was 258 nM. Besides, the Ratio Ki in data set [2] worked out at 3.

On to `CCCC1(CNS(=O)(=O)C(F)(F)F)CCN(S(=O)(=O)c2cc3ccccc3n2S(=O)(=O)c2ccccn2)CC1`, for which the Ki in data set [1] is 1.6 nM. The Ratio Ki in data set [2] came out at 26400. This compound also registered an AUC in data set [3] of 17.6 µM·h.

Take `COc1ccc2c(c1)cc(S(=O)(=O)N1CCC(CNS(=O)(=O)C(F)(F)F)CC1)n2S(=O)(=O)c1ccccc1F`: the Ki in data set [1] was found to be 0.8 nM. The Ratio Ki in data set [2] amounted to 5160.

As to `O=S(=O)(c1cc2ccccc2n1S(=O)(=O)c1ccccc1F)N1C[C@@H]2[C@@H](CNS(=O)(=O)C(F)(F)F)[C@@H]2C1`, the Ki in data set [1] is 9 nM. In data set [2], the Ratio Ki is 279.

Consider `CC1(C)CN(S(=O)(=O)c2cc3ccccc3n2S(=O)(=O)c2ccccc2F)CCC1CNS(=O)(=O)C(F)(F)F` (configuration not stated), for which the inhibitory constant (Ki) in data set [1] worked out at 4.2 nM. Further, in data set [2], the Ratio Ki is 245.

As to `C[C@@H]1CN(S(=O)(=O)c2cc3ccccc3n2S(=O)(=O)c2ccccc2F)CC[C@@H]1CNS(=O)(=O)C(F)(F)F`, the inhibitory constant (Ki) in data set [1] was determined as 1.5 nM. Besides, the Ratio Ki in data set [2] came to 6670.

Consider `O=S(=O)(c1cc2ccccc2n1S(=O)(=O)c1ccccc1F)N1CCC(O)(CNS(=O)(=O)C(F)(F)F)CC1`, for which the Ki in data set [1] worked out at 0.2 nM. The Ratio Ki in data set [2] was 4380.

For `O=S(=O)(c1cc2ccccc2n1S(=O)(=O)c1ccccc1F)N1CCC2(CC(NS(=O)(=O)C(F)(F)F)C2)C1` (configuration not stated), the Ki in data set [1] is 452 nM. Moreover, the Ratio Ki in data set [2] stood at 117.

`O=S(=O)(c1cc2ccccc2n1S(=O)(=O)c1ccccc1F)N1CCC2(CC1)CN(S(=O)(=O)C(F)(F)F)C2`: in data set [1], the Ki stood at 8430 nM. The Ratio Ki in data set [2] was 12.

With `CC1(CNS(=O)(=O)C(F)(F)F)CCN(S(=O)(=O)c2cc3ccccc3n2S(=O)(=O)c2ccccc2F)CC1`, the inhibition constant Ki in data set [1] stood at 0.35 nM. For the same compound, the Ratio Ki in data set [2] worked out at 6720.

Consider `CC(C)(NS(=O)(=O)C(F)(F)F)C1CCN(S(=O)(=O)c2cc3ccccc3n2S(=O)(=O)c2ccccc2F)CC1`, for which the Ki in data set [1] amounted to 171 nM. Besides, the Ratio Ki in data set [2] came to 171.

As for `CC(NS(=O)(=O)C(F)(F)F)C1CCN(S(=O)(=O)c2cc3ccccc3n2S(=O)(=O)c2ccccc2F)CC1` (configuration not stated), the inhibition constant Ki in data set [1] was 0.4 nM. Besides, the Ratio Ki in data set [2] is 2080.

Turning to `O=S(=O)(c1cc2ccccc2n1S(=O)(=O)c1ccccc1F)N1CC(CCNS(=O)(=O)C(F)(F)F)C1`, the Ki in data set [1] came out at 249 nM. Moreover, the Ratio Ki in data set [2] came to 11.

With `O=S(=O)(c1cc2ccccc2n1S(=O)(=O)c1cccnc1)N1CCC(CNS(=O)(=O)C(F)(F)F)CC1`, the Ki in data set [1] was found to be 41 nM. Also, the Ratio Ki in data set [2] is 139.

For the compound `COC1(CNS(=O)(=O)C(F)(F)F)CCN(S(=O)(=O)c2cc3cccnc3n2S(=O)(=O)c2ccccc2F)CC1`, the Ki in data set [1] turned out to be 2.5 nM. The Ratio Ki in data set [2] amounted to 3200. In data set [3], this compound came in with an AUC of 3.19 µM·h.

As to `O=S(=O)(c1cc2ccccc2n1S(=O)(=O)c1ccccc1F)N1CCC(CNS(=O)(=O)C(F)(F)F)CC1`, in data set [1], the Ki was 0.38 nM. For the same compound, the Ratio Ki in data set [2] is 9250.

As to `CC[C@]1(CNS(=O)(=O)C(F)(F)F)CCN(S(=O)(=O)c2cc3ccccc3n2S(=O)(=O)c2ccccc2F)C[C@H]1C`, the Ki in data set [1] was 3.1 nM. In data set [2], the Ratio Ki was 630.

On to `CN(C)c1ncccc1S(=O)(=O)n1c(S(=O)(=O)N2CCC(CNS(=O)(=O)C(F)(F)F)CC2)cc2ccccc21`, for which the Ki in data set [1] came to 23 nM. Moreover, the Ratio Ki in data set [2] came out at 126.

Regarding `CC(C)C1(CNS(=O)(=O)C(F)(F)F)CCCN(S(=O)(=O)c2cc3ccccc3n2S(=O)(=O)c2ccccc2F)C1` (configuration not stated), the Ki in data set [1] came to 78 nM. Also, the Ratio Ki in data set [2] was 24.

Take `Cn1c(S(=O)(=O)c2ccccc2F)c(S(=O)(=O)N2CCC(CNS(=O)(=O)C(F)(F)F)CC2)c2ccccc21`: the Ki in data set [1] was found to be 70 nM. For the same compound, the Ratio Ki in data set [2] was determined as 364.

Regarding `C[C@@H](NS(=O)(=O)C(F)(F)F)c1ccc(S(=O)(=O)c2ccoc2S(=O)(=O)c2ccccc2F)cc1`, the Ki in data set [1] was 4.4 nM. Further, in data set [2], the Ratio Ki was found to be 2690.

Take `O=S(=O)(c1cc2ccccc2n1S(=O)(=O)c1ccccc1F)N1CCC2(CC1)C[C@@H]2NS(=O)(=O)C(F)(F)F`: the Ratio Ki in data set [2] is 413.

Regarding `C[C@@H](NS(=O)(=O)C(F)(F)F)c1ccc(S(=O)(=O)n2cccc2S(=O)(=O)c2ccccc2F)cc1`, in data set [1], the Ki is 8.4 nM. The Ratio Ki in data set [2] is 962.

(Values after ChEMBL document CHEMBL1268834, “Expansion of SAR studies on triaryl bis sulfone cannabinoid CB2 receptor ligands” (Bioorg Med Chem Lett, 2010).)
